# Data: PubChem BioAssay AID210 (DTP/NCI, 2004)
# “And” between values parts separate entries of the source, which are not always exact repeats. Equal entries are not always repeated. Inconclusive results and toxic doses are left out.
# System: CD2F1 mice, ip Colon 26 adenocarcinoma, median survival T/C
# Experiment: NCI In Vivo Anticancer Drug Screen. Data for tumor model Colon 26 Adenocarcinoma (intraperitoneal) in CD2F1 (CDF1) mice
# Settings: endpoint: median survival time, higher = longer survival
# Description: The antitumor activity of compounds was measured in mice bearing transplantable tumors. Survival or tumor size were measured and the results are expressed as the measurement made in the treated group (T) divided by the measurement made in the vehicle treated control group (C). The tumor model used in this assay is Colon 26 Adenocarcinoma (intraperitoneal) in CD2F1 (CDF1) mice
# [1] = dose: 12.5 mg/kg/injection, schedule: Q04DX002 (ip), vehicle: Klucel (hydroxypropylcellulose) (HPC)
compound,measurement,setting,value
CCOC(=O)CC(SP(=S)(OC)OC)C(=O)OCC (configuration not stated),T/C,"dose: 25.0 mg/kg/injection, schedule: Q04DX002 (ip), vehicle: saline",103 % of control
same,T/C,"dose: 50.0 mg/kg/injection, schedule: Q04DX002 (ip), vehicle: saline",94 % of control
same,T/C,"dose: 100.0 mg/kg/injection, schedule: Q04DX002 (ip), vehicle: saline",104 % of control
same,T/C,"dose: 200.0 mg/kg/injection, schedule: Q04DX002 (ip), vehicle: saline",90 % of control
same,T/C,"dose: 400.0 mg/kg/injection, schedule: Q04DX002 (ip), vehicle: saline",91 % of control
COCC1OC(OC2C3=C(C(C)C)CCC3(C)/C=C3\C(CCC3(O)COC)C(C)C2O)C(O)C2OC3OC12OC3(C)C1CO1 (configuration not stated),T/C,"dose: 0.78 mg/kg/injection, schedule: Q04DX002 (ip), vehicle: Klucel (hydroxypropylcellulose) (HPC)",105 % of control and 94 % of control
same,T/C,"dose: 1.56 mg/kg/injection, schedule: Q04DX002 (ip), vehicle: Klucel (hydroxypropylcellulose) (HPC)",104 % of control and 106 % of control
same,T/C,"dose: 3.12 mg/kg/injection, schedule: Q04DX002 (ip), vehicle: Klucel (hydroxypropylcellulose) (HPC)",109 % of control and 95 % of control
same,T/C,"dose: 6.25 mg/kg/injection, schedule: Q04DX002 (ip), vehicle: Klucel (hydroxypropylcellulose) (HPC)",116 % of control and 89 % of control and 100 % of control
same,T/C,[1],103 % of control and 104 % of control and 98 % of control
COC(=O)C(F)C(Br)C(=O)OC (configuration not stated),T/C,"dose: 6.25 mg/kg/injection, schedule: Q04DX003 (ip), vehicle: saline with Tween-80",102 % of control
same,T/C,"dose: 12.5 mg/kg/injection, schedule: Q04DX003 (ip), vehicle: saline with Tween-80",102 % of control
same,T/C,"dose: 25.0 mg/kg/injection, schedule: Q04DX003 (ip), vehicle: saline with Tween-80",111 % of control
same,T/C,"dose: 50.0 mg/kg/injection, schedule: Q04DX003 (ip), vehicle: saline with Tween-80",114 % of control
COc1cc2oc(=O)ccc2cc1[C@@H]1OC(=O)C2(C)O[C@@H]12 (some centres not stated),T/C,"dose: 0.15 mg/kg/injection, schedule: Q01DX009 (ip), vehicle: water",91 % of control
same,T/C,"dose: 0.31 mg/kg/injection, schedule: Q01DX009 (ip), vehicle: water",106 % of control
same,T/C,"dose: 0.62 mg/kg/injection, schedule: Q01DX009 (ip), vehicle: water",111 % of control
same,T/C,"dose: 1.25 mg/kg/injection, schedule: Q01DX009 (ip), vehicle: water",94 % of control
same,T/C,"dose: 2.5 mg/kg/injection, schedule: Q01DX009 (ip), vehicle: water",88 % of control
same,T/C,"dose: 5.0 mg/kg/injection, schedule: Q01DX009 (ip), vehicle: water",90 % of control
same,T/C,"dose: 10.0 mg/kg/injection, schedule: Q01DX009 (ip), vehicle: water",102 % of control
CC[C@@]1(O)C[C@H](OC2CC(N(C)C)C(OC3CC(O)C(OC4CCC(=O)C(C)O4)C(C)O3)C(C)O2)c2c(cc3c(c2O)C(=O)c2c(O)cccc2C3=O)[C@H]1C(=O)OC (some centres not stated),T/C,"dose: 6.2 mg/kg/injection, schedule: Q07DX003 (iv), vehicle: water",105 % of control
same,T/C,"dose: 10.0 mg/kg/injection, schedule: Q07DX003 (iv), vehicle: water",119 % of control
same,T/C,"dose: 16.0 mg/kg/injection, schedule: Q07DX003 (iv), vehicle: water",117 % of control
Cc1c2oc3c(C)c([N+](=O)[O-])cc(C(=O)NC4C(=O)NC(C(C)C)C(=O)N5CCCC5C(=O)N(C)CC(=O)N(C)C(C(C)C)C(=O)OC4C)c3nc-2c(C(=O)NC2C(=O)NC(C(C)C)C(=O)N3CCCC3C(=O)N(C)CC(=O)N(C)C(C(C)C)C(=O)OC2C)c(N)c1=O (configuration not stated),T/C,"dose: 500.0 micrograms/kg/injection, schedule: Q01DX001 (ip), vehicle: saline + alcohol",112 % of control
Cc1cc(=O)n2c3c(c4c(cc13)c(CN(C)C)cc(=O)n4C)OC2,T/C,"dose: 6.25 mg/kg/injection, schedule: Q04DX002 (ip), vehicle: saline with Tween-80",99 % of control
same,T/C,"dose: 12.5 mg/kg/injection, schedule: Q04DX002 (ip), vehicle: saline with Tween-80",99 % of control
same,T/C,"dose: 25.0 mg/kg/injection, schedule: Q04DX002 (ip), vehicle: saline with Tween-80",107 % of control
same,T/C,"dose: 50.0 mg/kg/injection, schedule: Q04DX002 (ip), vehicle: saline with Tween-80",102 % of control
COC1C(O)C(C)OC(OC2C(Oc3cccc4c(O)c5c(=O)oc6ccc(C)c7c(=O)oc(c34)c5c67)OC(C)C(O)C2O)C1O (configuration not stated),T/C,[1],105 % of control and 112 % of control
same,T/C,"dose: 12.5 mg/kg/injection, schedule: Q04DX003 (ip), vehicle: Klucel (hydroxypropylcellulose) (HPC)",106 % of control
same,T/C,"dose: 25.0 mg/kg/injection, schedule: Q04DX002 (ip), vehicle: Klucel (hydroxypropylcellulose) (HPC)",107 % of control and 118 % of control
same,T/C,"dose: 25.0 mg/kg/injection, schedule: Q04DX003 (ip), vehicle: Klucel (hydroxypropylcellulose) (HPC)",116 % of control
same,T/C,"dose: 50.0 mg/kg/injection, schedule: Q04DX002 (ip), vehicle: Klucel (hydroxypropylcellulose) (HPC)",106 % of control
same,T/C,"dose: 50.0 mg/kg/injection, schedule: Q04DX003 (ip), vehicle: Klucel (hydroxypropylcellulose) (HPC)",106 % of control
same,T/C,"dose: 100.0 mg/kg/injection, schedule: Q04DX002 (ip), vehicle: Klucel (hydroxypropylcellulose) (HPC)",107 % of control and 100 % of control
same,T/C,"dose: 100.0 mg/kg/injection, schedule: Q04DX003 (ip), vehicle: Klucel (hydroxypropylcellulose) (HPC)",110 % of control
O=C1c2c(O)ccc(O)c2C(=O)c2c(NCCNCCO)ccc(NCCNCCO)c21,T/C,"dose: 0.19 mg/kg/injection, schedule: Q01DX009 (ip), vehicle: saline",216 % of control and 277 % of control
same,T/C,"dose: 0.25 mg/kg/injection, schedule: Q01DX009 (ip), vehicle: acid diluted with saline",359 % of control
same,T/C,"dose: 0.38 mg/kg/injection, schedule: Q01DX009 (ip), vehicle: saline",289 % of control and 416 % of control
same,T/C,"dose: 0.39 mg/kg/injection, schedule: Q01DX009 (ip), vehicle: acid diluted with saline",259 % of control
same,T/C,"dose: 0.39 mg/kg/injection, schedule: Q01DX009 (sc), vehicle: acid diluted with saline",104 % of control
same,T/C,"dose: 0.5 mg/kg/injection, schedule: Q01DX009 (ip), vehicle: acid diluted with saline",365 % of control
same,T/C,"dose: 0.65 mg/kg/injection, schedule: Q01DX009 (ip), vehicle: acid diluted with saline",305 % of control
same,T/C,"dose: 0.65 mg/kg/injection, schedule: Q01DX009 (sc), vehicle: acid diluted with saline",104 % of control
same,T/C,"dose: 0.75 mg/kg/injection, schedule: Q01DX009 (ip), vehicle: saline",289 % of control and 416 % of control
same,T/C,"dose: 1.0 mg/kg/injection, schedule: Q01DX009 (ip), vehicle: acid diluted with saline",365 % of control
same,T/C,"dose: 1.04 mg/kg/injection, schedule: Q04DX003 (ip), vehicle: acid diluted with saline",386 % of control
same,T/C,"dose: 1.04 mg/kg/injection, schedule: Q04DX003 (iv), vehicle: acid diluted with saline",116 % of control
same,T/C,"dose: 1.08 mg/kg/injection, schedule: Q01DX009 (ip), vehicle: acid diluted with saline",353 % of control
same,T/C,"dose: 1.08 mg/kg/injection, schedule: Q01DX009 (sc), vehicle: acid diluted with saline",112 % of control
same,T/C,"dose: 1.5 mg/kg/injection, schedule: Q01DX009 (ip), vehicle: saline",109 % of control and 277 % of control
same,T/C,"dose: 1.5 mg/kg/injection, schedule: Q07DX003 (iv), vehicle: acid diluted with saline",100 % of control
same,T/C,"dose: 1.73 mg/kg/injection, schedule: Q04DX003 (ip), vehicle: acid diluted with saline",270 % of control
same,T/C,"dose: 1.73 mg/kg/injection, schedule: Q04DX003 (iv), vehicle: acid diluted with saline",120 % of control
same,T/C,"dose: 1.8 mg/kg/injection, schedule: Q01DX009 (ip), vehicle: acid diluted with saline",110 % of control
same,T/C,"dose: 2.0 mg/kg/injection, schedule: Q01DX009 (ip), vehicle: acid diluted with saline",365 % of control
same,T/C,"dose: 2.88 mg/kg/injection, schedule: Q04DX003 (ip), vehicle: acid diluted with saline",265 % of control
same,T/C,"dose: 3.24 mg/kg/injection, schedule: Q01DX001 (ip), vehicle: acid diluted with saline",209 % of control
same,T/C,"dose: 3.24 mg/kg/injection, schedule: Q01DX001 (iv), vehicle: acid diluted with saline",114 % of control
same,T/C,"dose: 4.8 mg/kg/injection, schedule: Q04DX003 (ip), vehicle: acid diluted with saline",197 % of control
same,T/C,"dose: 5.4 mg/kg/injection, schedule: Q01DX001 (ip), vehicle: acid diluted with saline",237 % of control
same,T/C,"dose: 5.4 mg/kg/injection, schedule: Q01DX001 (iv), vehicle: acid diluted with saline",110 % of control
same,T/C,"dose: 6.0 mg/kg/injection, schedule: Q07DX003 (iv), vehicle: acid diluted with saline",96 % of control
same,T/C,"dose: 9.0 mg/kg/injection, schedule: Q01DX001 (ip), vehicle: acid diluted with saline",123 % of control
same,T/C,"dose: 9.0 mg/kg/injection, schedule: Q01DX001 (iv), vehicle: acid diluted with saline",123 % of control
Oc1ccc(C2CCCCC2)cc1CN1CCCCC1,T/C,"dose: 3.12 mg/kg/injection, schedule: Q04DX003 (ip), vehicle: saline",112 % of control
same,T/C,"dose: 6.25 mg/kg/injection, schedule: Q04DX003 (ip), vehicle: saline",114 % of control
same,T/C,"dose: 12.5 mg/kg/injection, schedule: Q04DX003 (ip), vehicle: saline",112 % of control
same,T/C,"dose: 25.0 mg/kg/injection, schedule: Q04DX003 (ip), vehicle: saline",104 % of control
same,T/C,"dose: 50.0 mg/kg/injection, schedule: Q04DX003 (ip), vehicle: saline",115 % of control
same,T/C,"dose: 100.0 mg/kg/injection, schedule: Q04DX003 (ip), vehicle: saline",120 % of control
